Measured values taken from PMC8412142 (Journal of medicinal chemistry, 2021).

Experiments:
[1] = Human liver microsome intrinsic clearance; conditions: human liver microsomes
MRC5 cells = assay: MRC5 cell toxicity; format: cell-based; conditions: in words
Mouse plasma stability = format: in vitro ADME; conditions: in words
[2] = In vivo pharmacokinetics of 29d, 10 mg/kg ip; design: species or system BALB/c mice
Caco-2 = Caco-2 permeability and efflux assay; format: in vitro ADME

Compound | HLM Clint [1] [μg/min/mg protein] | toxicity in mammalian cells (MRC5 cells) | further results
3-(5-(Piperidin-1-yl)-1H-pyrrolo[2,3-b]pyridin-3-yl)benzonitrile [24c] | 44 | – | –
5-(1-methyl-1H-pyrazol-4-yl)-3-(4-(trifluoromethyl)phenyl)-1H-pyrrolo[2,3-b]pyridine [13i] | 66 | – | –
Cn1cc(-c2cnc3[nH]cc(-c4cccc([N+](=O)[O-])c4)c3c2)cn1 [13t, 5-(1-Methyl-1H-pyrazol-4-yl)-3-(3-nitrophenyl)-1H-pyrrolo[2,3-b]pyridine] | – | showed signs of toxicity in mammalian cells | –
Cn1cc(-c2cnc3[nH]cc(-c4ccc(O)cc4)c3c2)cn1 [13u, 4-(5-(1-Methyl-1H-pyrazol-4-yl)-1H-pyrrolo[2,3-b]pyridin-3-yl)phenol] | – | showed signs of toxicity in mammalian cells | –
N#Cc1cccc(-c2c[nH]c3ncc(-c4cnn(C5CCNCC5)c4)cc23)c1 [29d] | – | non-toxic in MRC5 cells | stability in mouse plasma (Mouse plasma stability): stable in mouse plasma; brain penetration [2]: not appreciably brain-penetrant; Mean brain concentration ([2]; sparse sampling, 0.5 h, LLOQ = 9.77 ng/mL): <LLOQ; Caco-2 efflux / transporter substrate (Caco-2): likely a substrate for P-gp; Caco-2 permeability (Caco-2): low permeability
